Laboratory results reported in PMC9963684, “Meroterpenoids with Immunosuppressive Activity from Edible Fungus Craterellus odoratus” (Molecules, 2023).
In brackets after ≈: the same amount, converted by molar mass. Peptide text beside a SMILES is read from it. * marks the point of attachment. Cbz = O=C(OCc1ccccc1)*

Columns and labels:
[1] = test system: LPS-induced B-cell proliferation (spleen cells); experiment: LPS-induced B-cell proliferation ([3H]-thymidine uptake); type: cell-based; conditions: Mus musculus, spleen cells stimulated with 10 µg/mL LPS
Experimental: (§1) Female BALB/c mice were sacrificed by cervical dislocation, and the spleens were removed aseptically. Mononuclear cell suspensions were prepared after cell debris and clumps were removed. Erythrocytes were depleted with ammonium chloride buffer solution. Lymphocytes were washed and resuspended in RPMI-1640 medium supplemented with 10% FBS, penicillin (100 U/mL), and streptomycin ([…]).
(§2) Fresh spleen cells were obtained from female BALB/c mice (18–20 g). The 5 × 10^5 spleen cells were cultured at the same conditions as those mentioned above. The cultures, in the presence or absence of various concentrations of compounds, were stimulated with 5 µg/mL of concanavalin A (ConA) or 10 µg/mL of lipopolysaccharide (LPS) to induce T-cells’ or B-cells’ proliferative responses, respectively. Proliferation was assessed in terms of uptake of [^3H]-thymidine during 8 h of pulsing with 25 µL/well of [^3H]-thymidine, and then cells were harvested onto glass fiber filters. The incorporated radioactivity was counted using a Beta scintillation counter (MicroBeta Trilux; PerkinElmer Life Sciences, Waltham, MA, USA). Cells treated without any stimuli were used as a negative control. The immunosuppressive activity of each compound was expressed as the concentration of compound that inhibited ConA-induced T-cell proliferation or LPS-induced B-cell proliferation to 50% (IC50) of the control value. […]

[2] = Cytotoxicity assay (CCK-8) on spleen cells; type: cell-based; conditions: female, fresh spleen cells (splenic lymphocytes), BALB/c mouse spleen cells
Experimental: as §1
Cytotoxicity was tested with Cell Counting Kit-8 (CCK-8) assay. Briefly, fresh spleen cells were gained from female BALB/c mice (18–20 g). Spleen cells (1 ×10^6 cells) were seeded in triplicate in 96-well flat plates, then cultured at 37 °C for 48 h in 96-well flat plates in the presence or absence of various concentrations of compounds, as well as in a humidified and 5% CO2-containing incubator. A certain amount of CCK-8 was added to each well at the final 8–10 h of culture. At the end of culturing, we measured the OD values with a microplate reader (Bio-Rad 650, Hercules, CA, USA) at 450 nm. […] The cytotoxicity of each compound was expressed as the concentration of compound that reduced cell viability to 50% (CC50).

[3] = test system: human 11β-HSD2; parameters: method as in PMID 19879607; conditions: cited from earlier work
[4] = test system: Escherichia coli; parameters: L.V. Levchenko S.V. O’Neill D.P. Advances in methods and algorithms in a modern quantum chemistry program; conditions: cited from earlier work
[5] = test system: Staphylococcus aureus; parameters: method as in ref 17 =  L.V. Levchenko S.V. O’Neill D.P. Advances in methods and algorithms in a modern quantum chemistry program; conditions: cited from earlier work
[6] = test system: Micrococcus luteus; parameters: L.V. Levchenko S.V. O’Neill D.P. Advances in methods and algorithms in a modern quantum chemistry program; conditions: cited from earlier work
[7] = test system: human 11β-hydroxysteroid dehydrogenases (11β-HSD1); parameters: method as in PMID 19879607; conditions: cited from earlier work
[8] = test system: ConA-induced T-cell proliferation (spleen cells); experiment: ConA-induced T-cell proliferation ([3H]-thymidine uptake); type: cell-based; conditions: Mus musculus, spleen cells stimulated with 5 µg/mL ConA
Experimental: as §1, §2

[9] = test system: Bacillus cereus; parameters: method as in ref 17 = [17];  L.V. Levchenko S.V. O’Neill D.P. Advances in methods and algorithms in a modern quantum chemistry program; conditions: cited from earlier work
[10] = test system: NO production in LPS-activated RAW264.7 macrophages; experiment: Nitric oxide production in LPS-activated RAW264.7 macrophages; type: cell-based, murine; conditions: Mus musculus, positive control, 1 μg/mL LPS, 18 h
Experimental: Murine monocytic RAW264.7 macrophages were dispensed into 96-well plates (2 × 10^5 cells/well) containing RPMI-1640 medium (HyClone) with 10% FBS under a humidified atmosphere with 5% CO2 at 37 °C. After 24 h of preincubation, cells were treated with serial dilutions of the test compounds, up to a maximum concentration of 40 μM, in the presence of 1 μg/mL LPS for 18 h. The compounds were dissolved in DMSO and further diluted in the medium to produce different concentrations. NO production in each well was assessed by adding 100 μL of Griess reagent (reagent A and reagent B, Sigma, St. Louis, MO, USA) to 100 μL of each supernatant from the LPS-treated (Sigma) or LPS- and compound-treated cells in triplicate. After a 5 min incubation, the absorbance of samples was measured at 570 nm with a 2104 Envision multilabel plate reader (Perkin-Elmer Life Sciences, Inc., Boston, MA, USA).

[11] = test system: human embryonic kidney 293 cell; parameters: method as in PMID 26669092; conditions: read-out: IC50 against human embryonic kidney 293 cell; cited from earlier work

SMILES: CC1=CCC2C(C)(C)CCCC2(C)C1CC12OC1C(=O)C(Cc1c(O)cc(CC(C)O)oc1=O)=CC2O (stereo not shown) [Compound 1, craterodoratin T]
- IC50 [1]: 5.52 ± 0.452 µM
- CC50 at 48 h [2]: > 40 µM

SMILES: CC1=CC[C@H]2C(C)(C)CCC[C@]2(C)[C@H]1C[C@@]12O[C@@H]1[C@H](O)C(CO)=C[C@H]2O [Compound 3, craterellin A]
- IC50 against human 11β-HSD2 [3]: 1.5 µg/mL (≈ 4.14 µM)
- MIC against Escherichia coli [4]: 6.25 µM (≈ 2.27 µg/mL)
- IC50 [1]: 20 ± 1.38 µM
- MIC against Staphylococcus aureus [5]: 6.25 µM (≈ 2.27 µg/mL)
- MIC against Micrococcus luteus [6]: 6.25 µM (≈ 2.27 µg/mL)
- IC50 against human 11β-HSD1 [7]: 9.1 µg/mL (≈ 25.1 µM)
- CC50 at 48 h [2]: > 40 µM
- IC50 [8]: 9.07 ± 0.644 µM
- MIC against Bacillus cereus [9]: 3.12 µM (≈ 1.13 µg/mL)

SMILES: CC(C)C[C@@H](C=O)NC(=O)[C@H](CC(C)C)NC(=O)[C@H](CC(C)C)NC(=O)OCc1ccccc1 [MG-132] (Cbz-Leu-Leu-Leu-aldehyde)
- IC50 [10]: 0.2 µM

SMILES: CC1=CCC2C(C)(C)C(O)CCC2(C)C1CC12OC1C(O)C(CO)=CC2O (stereo not shown) [craterellin B]
- IC50 against human 11β-HSD1 [7]: 3.5 µg/mL (≈ 9.25 µM)

SMILES: C=C1[C@@H](O)[C@H]2O[C@@]2(C[C@H]2C(C)=CC[C@H]3C(C)(C)CCC[C@]23C)[C@H](O)[C@H]1O [craterellin C]
- IC50 against human 11β-HSD2 [3]: 25.4 µg/mL (≈ 70.1 µM)
- IC50 [11]: 50.9 µM
- IC50 against human 11β-HSD1 [7]: 14.8 µg/mL (≈ 40.8 µM)
